According to US7205297B2, “Substituted 5-alkynyl pyrimidines having neurotrophic activity” (Krenitsky Pharmaceuticals, Inc., priority 2000, dated 2007):

Legend:
PC12 cells = experiment: Choline acetyltransferase (ChAT) assay in NGF-treated PC12 cells; type: cell-based, rat; settings: 3 days incubation with test compound, versus NGF alone
Method: Cultured PC12 cells (rat adrenal pheochromocytoma from ATCC) have receptors for NGF. Responses include promotion of neurite outgrowth and elevation of choline acetyltransferase (ChAT) (L. A. Greene and A. S. Tischler, Cell Neurobiol., 3, 373 (1982)).
The following assay is modified from that described in H L White and P W Scates, Neurochem. Res., 16, 63 (1991). PC12 cells were cultured at 37° C. in RPMI supplemented with HEPES buffer, pH7.5 (to 10 mM), fetal bovine serum, horse serum, glutamine, penicillin, streptomycin and non-essential amino acids. Cultures were split 1:3 every 3 to 4 days. Exponentially dividing cells were plated into fresh medium on collagen-coated 12-well plastic dishes (10^5 cells/well). After allowing one day for cell attachment, the medium was replaced with low serum medium, with or without test compounds with each condition in triplicate. The medium may contain up to 0.2% ethanol, which was used as a solvent for most compounds tested. Cells were examined for morphological changes using an Olympus IMT-2 inverted research microscope. After 3 days incubation with test compounds, medium was removed and replaced with 0.2 ml of lysis and ChAT assay mixture. The plates were incubated at 37° C. for 2 hours and then placed into a freezer at −20° C.
Compounds are judged NGF-like in this primary screen if they (1) increase the activity of ChAT, (2) enhance NGF-stimulated neurite outgrowth or (3) potentiate or appear additive with the action of NGF itself.
The assay mixture contained 100 mM phosphate, pH7.4, 0.1% NP40, 150 mM NaCl, 1.5 mM choline, 10 mM EDTA, 0.1 mM eserine, 0.1 mM acetyl-coenzyme A and about 0.5 uCi (40–70 Ci/mol) [14C]acetyl-coenzyme A in each ml of mixture. Thawed and lysed cell reaction mixtures were diluted to 1 ml with water and transferred to 7 ml scintillation vials containing 5 ml of extraction/scintillation fluid solution (50 mg triphenyl borate, 50 mg PPO, 20 mg POPOP per 100 ml of 20% acetonitrile/80% toluene) and vortexed for 10 seconds. After all 20 diluted well contents were transferred and mixed, all the vials were vortexed again for 30 seconds, rotated for about 2 hours, and then vortexed once more. The vials were centrifuged at 3000 rpm (rmax.=16 cm) for 15 minutes and then counted in a Beckman LS6500 scintillation counter. Background counts from reaction mixtures with extracts from non-stimulated cells (no NGF and no test compound) were subtracted from reaction product counts before comparisons of ChAT activities were made.
The following data were obtained for representative compounds of the present invention which (1) increased the activity of choline acetyltransferase ChAT), (2) enhanced NGF-stimulated neurite outgrowth and/or (3) potentiated or appeared additive with the action of NGF itself. The concentration at which the test compound doubled the ChAT activity over the activity with NGF alone (no test compound) was recorded as the EC2x value.

SMILES | melting point | EC2× (concentration at which the test compound doubled the ChAT activity over the activity with NGF alone) (PC12 cells) [µM]
O[C@H]1CC[C@H](Nc2ncncc2C#Cc2ccc(Cl)cc2)CC1 [Example 4, 5-(4-chlorophenylethynyl)-4-(trans-4-hydroxycyclohexylamino) pyrimidine] | – | 0.2
Nc1ncc(C#Cc2ccccc2)c(N[C@H]2CC[C@H](O)CC2)n1 [Example 9, 2-amino-4-(trans-4-hydroxycyclohexylamino)-5-phenylethynylpyrimidine] | – | 0.1
Nc1ncc(C#Cc2ccc(Cl)cc2)c(NCCO)n1 [Example 13, 2-amino-5-(4-chlorophenylethynyl)-4-(2-hyroxyethylamino) pyrimidine] | – | 0.3
Nc1ncc(C#Cc2ccc(Cl)cc2)c(N[C@H]2CC[C@@H](O)CC2)n1 [Example 23, 2-amino-5-(4-chlorophenylethynyl)-4-(4-cis-hydroxycyclohexylamino)pyrimidine] | – | 0.3
CCc1ccc(C#Cc2cnc(N)nc2N[C@H]2CC[C@H](O)CC2)cc1.Cl [Example 26, 2-amino-5-(4-ethylphenylethynyl)-4-(4-trans-hydroxycyclohexylamino) pyrimidine hydrochloride] | – | 0.2

Now from value to compound, other results behind:

melting point | SMILES | EC2× (concentration at which the test compound doubled the ChAT activity over the activity with NGF alone) (PC12 cells) [µM]
223 to 225 °C (dec.) | Cl.Oc1ccc(Nc2ncncc2C#Cc2ccccc2)cc1 | –
220 to 230 °C (dec.) | COc1ccc(C#Cc2cnc(N)nc2Nc2ccc(O)cc2)cc1.Cl | –
151 to 155 °C | O[C@H]1CC[C@H](Nc2ncncc2C#Cc2ccc(Cl)cc2)CC1 (hydrate or solvate) [Example 4, 5-(4-chlorophenylethynyl)-4-(trans-4-hydroxycyclohexylamino) pyrimidine] | –
215 to 218 °C | Nc1ncc(C#Cc2ccc(Cl)cc2)c(N[C@H]2CC[C@H](O)CC2)n1 [Example 12, 2-amino-5-(4-chlorophenylethynyl)-4-(trans-4-hydroxycyclohexylamino)pyrimidine] | 0.2
176 to 180 °C | Nc1ncc(C#Cc2ccc(Cl)cc2)c(NCCOCCO)n1 [Example 14, 2-amino-5-(4-chlorophenylethynyl)-4-[2-(2-hydroxyethoxy)ethylamino]pyrimidine] | 0.5
128 to 129 °C | Nc1ncc(C#Cc2ccccc2)c(NCCOCCO)n1 [Example 19, 2-amino-4-[2-(2-hydroxyethoxy)ethylamino]-5-phenylethynyl pyrimidine] | –
168 to 172 °C | Nc1ncc(C#Cc2ccc(Cl)cc2)c(OC2CCC(=O)CC2)n1 [Example 41, 2-amino-5-(4-chlorophenylethynyl)-4-(4-oxocyclohexyloxy) pyrimidine] | –
